Laboratory results from paper PMC12120022, “Discovery and chemical optimisation of a potent, Bi-cyclic antimicrobial inhibitor of Escherichia coli PBP3” (Communications Biology, 2025).
In brackets after ≈: the same amount, converted by molar mass. *1 amine or outer side, *2 acyl side, *3 side chain or, on linkers, in order; H or OH if unused. Where a SMILES comes first, the peptide text is derived from it. Bridges are numbered along the chain shown (N, C = ends). [ ]: non-standard residue; d: D form. TATA = O=C(CC[*:1])N1CN(C(=O)CC[*:2])CN(C(=O)CC[*:3])C1; Trp(6-Cl) = N[C@@H](Cc1c[nH]c2cc(Cl)ccc12)C(=O)O; hArg = N=C(N)NCCCC[C@H](N)C(=O)O

Legend:
[1] = tested on: Acinetobacter baumannii AR0275; assay: MIC; assay type: cell-based; conditions: caMHB, replicates listed; for MIC: Acinetobacter baumannii, AR0275
Protocol: (§1) Minimal inhibition concentration (MIC) assays were performed in accordance with CLSI standards, using cation-adjusted Mueller Hinton broth (caMHB; Sigma Aldrich) unless otherwise specified. Induction of pore expression in hyperporinated strains E. coli GKCW101 and GKCW102 was performed by addition of 0.1% (w/v) L-arabinose to cultures at OD600 ~ 0.3, with caMHB as the culture medium.

[2] = tested on: Citrobacter freundii AR0116; assay: MIC; assay type: cell-based; conditions: caMHB, replicates listed; for MIC: Citrobacter freundii, AR0116
Protocol: as §1

[3] = tested on: Enterobacter cloacae AR0038; assay: MIC; assay type: cell-based; conditions: caMHB, replicates listed; for MIC: Enterobacter cloacae, AR0038
Protocol: as §1

[4] = tested on: Escherichia coli ATCC BAA-2469; assay: MIC; assay type: cell-based; conditions: caMHB, replicates listed; for MIC: Escherichia coli, ATCCBAA2469
Protocol: as §1

[5] = tested on: Escherichia coli NCTC 13441; assay: MIC; assay type: cell-based; conditions: caMHB, replicates listed
Protocol: as §1

[6] = tested on: Klebsiella pneumoniae B454; assay: MIC; assay type: cell-based; conditions: caMHB, replicates listed
Protocol: as §1

[7] = tested on: Klebsiella pneumoniae KPNIH1; assay: MIC; assay type: cell-based; conditions: caMHB, replicates listed
Protocol: as §1

Proteus mirabilis AR159 = assay: MIC; assay type: cell-based; conditions: caMHB, replicates listed; for MIC: Proteus mirabilis, AR159
Protocol: as §1

[8] = tested on: Pseudomonas aeruginosa NCTC 13437; assay: MIC; assay type: cell-based; conditions: caMHB, replicates listed
Protocol: as §1

[9] = tested on: Acinetobacter baumannii NCTC 12156; assay: MIC; assay type: cell-based; conditions: caMHB, replicates listed
Protocol: as §1

[10] = tested on: Enterobacter cloacae KPC114; assay: MIC; assay type: cell-based
Protocol: as §1

Mouse blood stability = assay type: in vitro ADME, CD-1 mice; conditions: CD-1, mouse, whole blood (EDTA as anticoagulant), 37 °C, SAR peptides, read-out: Blood stability (t1/2) (converted)
Protocol: Stability assays were performed using freshly collected matrices from CD-1 mice, with anticoagulant as stated per dataset. Compound stocks in DMSO were tested at 5 μM final concentration (0.5% (v/v) DMSO). Compounds were incubated in blood or plasma at 37 °C for 24 h, with sampling at 0, 1, 2, 4, 6 and 24 h. Samples were prepared via protein precipitation using organic solvent containing internal standard, and analyzed by LC-MS/MS. Compound remaining was quantified based on the ratio of analyte to internal standard, and the half-life (t1/2) was calculated from a log linear plot of % remaining versus time.

E. coli GKCW101 (WT) = conditions: caMHB; biological replicates or their range
Protocol: (§2) To evaluate the engagement of EcPBP3 by a bicyclic peptide in whole cells lacking the outer membrane permeability barrier, peptides were screened in ‘hyperporinated’ E. coli strains in which a constitutively open FhuA pore (FhuAΔC/Δ4L, lacking N-terminal cork domain and external loops) was chromosomally expressed under control of an arabinose-inducible promoter.
as §1

E. coli GKCW102 (EcPore) = conditions: caMHB; biological replicates or their range
Protocol: as §2, §1

E. coli ATCC 25922 = assay: MIC, wild-type strain; assay type: cell-based, Escherichia coli
Protocol: as §1

[11] = tested on: Citrobacter freundii B121; assay: MIC; assay type: cell-based; conditions: caMHB; replicates listed
Protocol: as §1

[12] = tested on: Enterobacter cloacae AR0032; assay: MIC; assay type: cell-based; conditions: caMHB; replicates listed
Protocol: as §1

[13] = tested on: Enterobacter cloacae B173; assay: MIC; assay type: cell-based; conditions: caMHB; replicates listed
Protocol: as §1

Escherichia coli UTI89 = assay: MIC; assay type: cell-based; conditions: caMHB; replicates listed
Protocol: as §1

[14] = tested on: Klebsiella pneumoniae ATCC 43816; assay: MIC; assay type: cell-based; conditions: caMHB; replicates listed
Protocol: as §1

[15] = tested on: Klebsiella pneumoniae ATCC 700603; assay: MIC; assay type: cell-based; conditions: caMHB; replicates listed
Protocol: as §1

[16] = tested on: Proteus mirabilis ATCC 43071; assay: MIC; assay type: cell-based; conditions: caMHB; replicates listed
Protocol: as §1

[17] = tested on: Pseudomonas aeruginosa ATCC 27853; assay: MIC; assay type: cell-based; conditions: caMHB; replicates listed
Protocol: as §1

Compound: C[C@H]1COc2c(N3CCN(C)CC3)c(F)cc3c(=O)c(C(=O)O)cn1c23 [Levofloxacin, reference compound]
- MIC [1]: 2.2 µg/mL (≈ 6.09 µM)
- MIC [2]: > 2 µg/mL
- MIC [3]: > 2 µg/mL
- MIC [4]: > 2 µg/mL
- MIC ([5]; Escherichia coli, NCTC13441): > 2 µg/mL
- MIC ([6]; Klebsiella pneumoniae, B454): > 2 µg/mL
- MIC [7]: > 2 µg/mL
- MIC (Proteus mirabilis AR159): 2.2 µg/mL (≈ 6.09 µM)
- MIC ([8]; Pseudomonas aeruginosa, NCTC13437): 2.2 µg/mL (≈ 6.09 µM)

Compound: C[C@@H](O)[C@H]1C(=O)N2C(C(=O)O)=C(S[C@@H]3CN[C@H](C(=O)N(C)C)C3)[C@H](C)[C@H]12 [Meropenem, reference compound]
- MIC [1]: > 2 µg/mL
- MIC ([9]; Acinetobacter baumannii, NCTC12156): 1.1 µg/mL (≈ 2.87 µM)
- MIC [2]: > 2 µg/mL
- MIC [3]: > 2 µg/mL
- MIC ([10]; Enterobacter cloacae, KPC114, read-out: MIC Enterobacter cloacae KPC114): > 2 µg/mL
- MIC [4]: > 2 µg/mL
- MIC (Proteus mirabilis AR159): > 2 µg/mL

Compound: CC(C)[C@@H]1NC(=O)[C@H](Cc2c[nH]c3ccccc23)NC(=O)[C@@H]2CCCN2C(=O)[C@@H]2CSCCC(=O)N3CN(CN(C3)C(=O)CCSC[C@H](N)C(=O)N[C@@H](CO)C(=O)N[C@@H](Cc3ccccc3)C(=O)N3CCC[C@H]3C(=O)N[C@@H](CCCCNC(=N)N)C(=O)N2)C(=O)CCSC[C@@H](C(N)=O)NC(=O)CNC(=O)[C@H](CCC(=O)O)NC1=O [Peptide 72, CSFP[HArg]CPWVEGC] (HELM PEPTIDE1{C.S.F.P.[N=C(N)NCCCC[C@H](N[*:1])C(=O)[*:2]].C.P.W.V.E.G.C.[am]}|CHEM1{[O=C(CC[*:1])N1CN(C(=O)CC[*:2])CN(C(=O)CC[*:3])C1]}$PEPTIDE1,CHEM1,1:R3-1:R1|PEPTIDE1,CHEM1,6:R3-1:R2|PEPTIDE1,CHEM1,12:R3-1:R3$$$V2.0)
- half-life at 5 μM (Mouse blood stability): 3 h

Compound: CC(=O)N[C@@H](C)C(=O)N[C@H]1CSCCC(=O)N2CN3CN(C2)C(=O)CCSC[C@H](NC(=O)[C@H](CCCCNC(=N)N)NC(=O)[C@@H]2CCCN2C(=O)[C@H](Cc2ccccc2)NC(=O)[C@H](CO)NC1=O)C(=O)N1CCC[C@H]1C(=O)N[C@@H](Cc1c[nH]c2ccccc12)C(=O)N[C@@H](C(C)C)C(=O)N[C@@H](CCC(=O)O)C(=O)NCC(=O)N[C@H](C(=O)N[C@@H](C)C(N)=O)CSCCC3=O [Peptide 73]
- half-life at 5 μM (Mouse blood stability): 14.1 h

Compound: CC(=O)N[C@H]1CSCCC(=O)N2CN3CN(C2)C(=O)CCSC[C@H](NC(=O)[C@H](CCCCNC(=N)N)NC(=O)[C@@H]2CCCN2C(=O)[C@H](Cc2ccccc2)NC(=O)[C@H](CO)NC1=O)C(=O)N1CCC[C@H]1C(=O)N[C@@H](Cc1c[nH]c2ccccc12)C(=O)N[C@@H](C(C)C)C(=O)N[C@@H](CCC(=O)O)C(=O)NCC(=O)N[C@H](C(=O)N[C@@H](C)C(N)=O)CSCCC3=O [Peptide 74] (HELM PEPTIDE1{[ac].C.S.F.P.[N=C(N)NCCCC[C@H](N[*:1])C(=O)[*:2]].C.P.W.V.E.G.C.A.[am]}|CHEM1{[O=C(CC[*:1])N1CN(C(=O)CC[*:2])CN(C(=O)CC[*:3])C1]}$PEPTIDE1,CHEM1,2:R3-1:R1|PEPTIDE1,CHEM1,7:R3-1:R2|PEPTIDE1,CHEM1,13:R3-1:R3$$$V2.0)
- half-life at 5 μM (Mouse blood stability): 17.7 h

Compound: CC(=O)N[C@@H](C)C(=O)N[C@H]1CSCCC(=O)N2CN3CN(C2)C(=O)CCSC[C@H](NC(=O)[C@H](CCCCNC(=N)N)NC(=O)[C@@H]2CCCN2C(=O)[C@H](Cc2ccccc2)NC(=O)[C@H](CO)NC1=O)C(=O)N1CCC[C@H]1C(=O)N[C@@H](Cc1c[nH]c2cc(Cl)ccc12)C(=O)N[C@@H](C(C)C)C(=O)N[C@@H](CCC(=O)O)C(=O)NCC(=O)N[C@H](C(=O)N[C@@H](C)C(N)=O)CSCCC3=O [Peptide 75, [-Ac]ACSFP[HArg]CP[6ClTrp]VEGCA] (Ac-ACSFP[hArg]CP[Trp(6-Cl)]VEGCA-NH2; linker 2-7-13 via TATA)
- half-life at 5 μM (Mouse blood stability): 11.4 h

Compound: ACSFPKCPWVEGCA* [Conjugate 2]
- MIC E. coli GKCW101 (WT) (E. coli GKCW101 (WT)): 4 to 8 µg/mL
- MIC E. coli GKCW102 (EcPore) (E. coli GKCW102 (EcPore)): 0.5 to 1 µg/mL
- MIC E. coli ATCC 25922 (E. coli ATCC 25922; MHB, biological replicates or their range): 1 to 2 µg/mL
- MIC Escherichia coli ATCC 25922 (E. coli ATCC 25922; caMHB, replicates listed, number in brackets): 2,8 μg mL-1
- MIC Acinetobacter baumannii AR0275 [1]: > 64 µg/mL
- MIC Acinetobacter baumannii NCTC 12156 [9]: > 64 µg/mL
- MIC Citrobacter freundii AR0116 [2]: 8 µg/mL
- MIC Citrobacter freundii B121 [11]: 8 µg/mL
- MIC Enterobacter cloacae AR0032 [12]: 4 µg/mL
- MIC Enterobacter cloacae AR0038 [3]: 8 µg/mL
- MIC Enterobacter cloacae B173 [13]: 16 µg/mL
- MIC Enterobacter cloacae KPC114 ([10]; caMHB, replicates listed): 8 µg/mL
- MIC Escherichia coli ATCC BAA-2469 [4]: 8,8 μg mL-1
- MIC Escherichia coli NCTC 13441 [5]: 4,8 μg mL-1
- MIC Escherichia coli UTI89 (Escherichia coli UTI89): 8 µg/mL
- MIC Klebsiella pneumoniae ATCC 43816 [14]: 8,16 μg mL-1
- MIC Klebsiella pneumoniae ATCC 700603 [15]: 16 µg/mL
- MIC Klebsiella pneumoniae B454 [6]: 16,32 μg mL-1
- MIC Proteus mirabilis AR159 (Proteus mirabilis AR159): > 64 µg/mL
- MIC Proteus mirabilis ATCC 43071 [16]: > 64 µg/mL
- MIC Pseudomonas aeruginosa ATCC 27853 [17]: > 64 µg/mL
- MIC Pseudomonas aeruginosa NCTC 13437 [8]: > 64 µg/mL
